In patent publication US7112573B2, “Isoflavone and triterpene glycosides from soybeans” (Iowa Research, The University Foundation, priority 2002, dated 2006):
In brackets after ≈: the same amount, converted by molar mass.

Columns and labels:
Type in all cases: cell-based, human
Conditions in all cases: 6 days incubation, 50% reduction of absorbance vs untreated controls, mean of 2 observations
[1] = test system: Hs 740.T stomach carcinoma cell line; experiment: MTT cytotoxicity assay, Hs 740.T
From the text: (§1) Here, as described herein below, the inventors used human stomach carcinoma (Hs 740.T, Hs 756 T), breast adenocarcinoma (Hs 578 T, Hs 742.T) and prostate carcinoma (DU 145, and LNCaP-FGC) cell lines to evaluate the cytotoxic activities of extracts and the compounds provided the invention. The 50% effective doses (ED50) obtained by measuring growth inhibition with MTT (3-[4,5-dimethlthiazol-2-yl]-2,5-diphenyltetrazolium bromide]) (Goren et al, 1996; Rubinstein et al, 1990) are shown in Table 3.
(§2) The following materials and reagents were used for cell culture and cytotoxic assays. Human stomach carcinoma (Hs 740.T, Hs 756 T), breast adenocarcinoma (Hs 578 T, Hs 742.T) and prostate carcinoma (DU 145, LNCaP-FGC) cell lines were purchased from the American Type Culture Collection ATCC. Dulbecco's modified Eagle medium (DMEM) (Gibco, Grand Island, N.Y.), Eagle Minimum Essential Medium (EMEM) and Rosewell Park Memorial Institute (RPMI) 1640 medium were from Nissui Pharm. Co., Ltd., Tokyo, Japan. Flat-bottom plates, 96-well were from Iwaki Glass Co., LTD (Funabashi-Chiba-Ken, Japan). The 3-[4,5-dimethlthiazol-2-yl]-2,5-diphenyltetrazolium bromide (MTT) colorimetric assay (Goren et al., 1996; Rubinstein et al., 1990) was from Sigma (St. Louis, Mo., USA), and 10% fetal bovine serum FBS was from Gibco BRL (Rockville, Md., USA). All other chemicals used were of analytical reagent grade.
(§3) Cell lines Hs 740.T, Hs 746 T, Hs 578 T and Hs 742.T were cultured in Dulbecco's Modified Eagle's Medium (DMEM) containing 10% heat-inactivated Fetal Bovine Serum (FBS). The DU 145 cells were cultured in Eagle Minimum Essential Medium (EMEM) containing Earle's salts and supplemented with amino acids and 10% heat-inactivated FBS. The LNCaP-FGC cell lines were maintained in Rosewell Park Memorial Institute (RPMI) 1640 medium containing 10% heat-inactivated FBS. All cell lines were cultivated in an incubator at 37° C. in humidified air containing 5% CO2. For routine cytotoxicity assays, all six cell lines were adapted to one single medium RPMI 1640 medium supplemented with 10% FBS, 2 mM L-glutamine, penicillin (100 units/mL) and streptomycin (100 μg/mL). For the microassay, the growth medium was supplemented with 10 mM HEPES (1-(2-hydroxyethyl) piperazine-4-ethanesulfonic acid) buffer (pH 7.3) and incubated at 37° C. in a CO2 incubator. These methods are similar to those used by Goren et al., (1996) AND Rubinstein et al., (1990).
(§4) Cellular viability in the presence and absence of experimental agents was determined using the standard MTT (3-[4,5-dimethlthiazol-2-yl]-2,5-diphenyltetrazolium bromide) calorimetric assay (Goren et al., 1996; Rubinstein et al., 1990). The assay is based on reduction of MTT by the mitochondrial dehydrogenase of viable cells to give a blue formazan product that can be measured spectrophotometrically (Goren et al., 1996; Rubinstein et al., 1990). In brief, exponentially growing cells were harvested, and 200 μL cells suspension were seeded in 96-well microplates and preincubated for 24 h at 37° C. under 5% CO2 to allow cell attachment. After attachment, 10 μL of an EtOH: H2O (1:1 solution) containing varying concentrations of test samples were added to wells in duplicate, and 10 μL EtOH:H2O (1:1) was added into wells as a control. Sample containing microplates were further incubated for 6 days. Cell survival was evaluated by adding 10 μL of 5 mg mL of MTT in 0.1 mM, pH 7.4 phosphate buffered saline to each well, and reincubating plates in 5% CO2/air for 4 h at 37° C. Plates were then centrifuged at 1,500×g for 5 min to precipitate cells and MTT formazan. An aliquot of 100 μL of the supernatant was removed, and DMSO (100 μL) was added to dissolve the precipitated, reduced MTT. The plate was mixed on a microshaker for 10 min, and the absorbance was determined at 550 nm with a multiwell scanning spectrophotometer (Dynex MR 5000, Chantilly Va.). […]

[2] = test system: Hs 746 T stomach carcinoma cell line; experiment: MTT cytotoxicity assay, Hs 746 T
From the text: as §1, §2, §3, §4

[3] = test system: Hs 578 T breast adenocarcinoma cell line; experiment: MTT cytotoxicity assay, Hs 578 T
From the text: as §1, §2, §3, §4

[4] = test system: HS 742.T breast adenocarcinoma cell line; experiment: MTT cytotoxicity assay, HS 742.T
From the text: as §1, §2, §3, §4

[5] = test system: DU 145 prostate carcinoma cell line; experiment: MTT cytotoxicity assay, DU 145
From the text: as §1, §2, §3, §4

[6] = test system: LNCAp-FGC prostate carcinoma cell line; experiment: MTT cytotoxicity assay, LNCaP-FGC
From the text: as §1, §2, §3, §4

SMILES | ED50 Stomach Carcinoma Hs 740.T [1] [mg/L] | ED50 Stomach Carcinoma Hs 746 T [2] [mg/L] | ED50 Breast Adenocarcinoma Hs 578 T [3] [mg/L] | ED50 Breast Adenocarcinoma HS 742.T [4] [mg/L] | ED50 Prostate Carcinoma DU 145 [5] [mg/L] | ED50 Prostate Carcinoma LNCAp-FGC [6] [mg/L]
CC1(C)C[C@@H](O)[C@]2(C)CC[C@]3(C)C(=CC[C@@H]4[C@@]5(C)CC[C@H](O[C@@H]6O[C@H](C(=O)O)[C@@H](O)[C@H](O)[C@H]6O)[C@@](C)(CO)[C@@H]5CC[C@]43C)[C@@H]2C1 [Compound 17, 3-O-[β-D-glucuronopyranosyl]soyasapogenol B, reference compound] | 9.61 (≈ 15.1 µM) | 9.59 (≈ 15.1 µM) | 8.77 (≈ 13.8 µM) | 28.68 (≈ 45.2 µM) | 9.13 (≈ 14.4 µM) | 37.29 (≈ 58.7 µM)
O=C1c2ccc(O[C@@H]3O[C@H](CO)[C@@H](O)[C@H](O)[C@H]3O)cc2OCC1c1ccc(O)cc1 (stereo partly drawn) [Compound 1, 7-O-β-D-glucopyranosyl-4′-hydroxy-isoflavanone] | 17.37 (≈ 41.5 µM) | 14.92 (≈ 35.7 µM) | 28.23 (≈ 67.5 µM) | 33.57 (≈ 80.2 µM) | 9.16 (≈ 21.9 µM) | 32.45 (≈ 77.6 µM)
CC1(C)C[C@H]2C3=CC[C@@H]4[C@@]5(C)CC[C@H](O[C@@H]6O[C@H](C(=O)O)[C@@H](O)[C@H](O)[C@H]6O[C@@H]6O[C@H](CO)[C@H](O)[C@H](O)[C@H]6O)[C@](C)(CO)[C@@H]5CC[C@@]4(C)[C@]3(C)CC[C@@]2(C)[C@H](O[C@@H]2OC[C@H](O)[C@H](O[C@@H]3O[C@H](CO)[C@@H](O)[C@H](O)[C@H]3O)[C@H]2O)[C@@H]1O [Compound 15, 3-O-{[β-D-galactopyranosyl-(1→2)-β-D-glucuronopyranosyl]}-22-O-[β-D-glucopyranosyl(1→3)-α-L-arabinopyranosyl]soyasapogenol A, reference compound] | 3.15 (≈ 2.84 µM) | 3.22 (≈ 2.91 µM) | 4.84 (≈ 4.37 µM) | 30.10 (≈ 27.2 µM) | 2.11 (≈ 1.91 µM) | 30.70 (≈ 27.7 µM)
C[C@@H]1O[C@@H](O[C@H]2[C@H](O[C@@H]3CC(C)(C)C[C@H]4C5=CC[C@@H]6[C@@]7(C)CC[C@H](O[C@@H]8O[C@H](C(=O)O)[C@@H](O)[C@H](O)[C@H]8O[C@@H]8O[C@H](CO)[C@H](O)[C@H](O)[C@H]8O[C@@H]8O[C@@H](C)[C@H](O)[C@@H](O)[C@H]8O)[C@@](C)(CO)[C@@H]7CC[C@@]6(C)[C@]5(C)CC[C@@]34C)OC[C@H](O)[C@@H]2O)[C@H](O)[C@H](O)[C@H]1O [Compound 13] | 3.53 (≈ 2.89 µM) | 2.47 (≈ 2.02 µM) | 2.39 (≈ 1.96 µM) | 17.51 (≈ 14.3 µM) | 3.12 (≈ 2.55 µM) | 27.50 (≈ 22.5 µM)
CC1(C)C[C@@H](O)[C@]2(C)CC[C@]3(C)C(=CC[C@@H]4[C@@]5(C)CC[C@H](O[C@@H]6O[C@H](C(=O)O)[C@@H](O)[C@H](O)[C@H]6O[C@@H]6O[C@H](CO)[C@H](O)[C@H](O)[C@H]6O[C@@H]6O[C@H](CO)[C@@H](O)[C@H](O)[C@H]6O)[C@@](C)(CO)[C@@H]5CC[C@]43C)[C@@H]2C1 [Compound 16, 3-O-[β-D-glucopyranosyl-(1→2)-β-D-galactopyranosyl(1→2)-β-D-glucuronopyranosyl] soyasapogenol B, reference compound] | 8.97 (≈ 9.35 µM) | 7.36 (≈ 7.67 µM) | 9.87 (≈ 10.3 µM) | 31.55 (≈ 32.9 µM) | 5.75 (≈ 5.99 µM) | 40.68 (≈ 42.4 µM)
O=C1c2c(O)cc(O[C@@H]3O[C@H](CO)[C@@H](O)[C@H](O)[C@H]3O)cc2OCC1c1ccc(O)cc1 (stereo partly drawn) [Compound 2, 7-O-β-D-glucopyranosyl-5,7,4′-trihydroxyisoflavanone] | 15.12 (≈ 34.8 µM) | 12.24 (≈ 28.2 µM) | 15.36 (≈ 35.4 µM) | 30.80 (≈ 70.9 µM) | 10.25 (≈ 23.6 µM) | 41.58 (≈ 95.7 µM)
C[C@@H]1O[C@@H](O[C@H]2[C@H](O[C@H]3[C@H](O[C@H]4CC[C@@]5(C)[C@@H](CC[C@]6(C)[C@@H]5CC=C5[C@@H]7CC(C)(C)C[C@@H](O[C@@H]8O[C@H](CO)[C@@H](O)[C@H](O)[C@H]8O[C@@H]8O[C@@H](C)[C@H](O)[C@@H](O)[C@H]8O)[C@]7(C)CC[C@]56C)[C@]4(C)CO)O[C@H](C(=O)O)[C@@H](O)[C@@H]3O)O[C@H](CO)[C@H](O)[C@@H]2O)[C@H](O)[C@H](O)[C@H]1O [Compound 14] | 4.10 (≈ 3.28 µM) | 3.94 (≈ 3.15 µM) | 2.12 (≈ 1.69 µM) | 14.63 (≈ 11.7 µM) | 3.25 (≈ 2.6 µM) | 24.10 (≈ 19.3 µM)
COc1ccc(-c2coc3cc(OC4OC(COC(C)=O)[C@@H](O)C(O)C4OC(C)=O)ccc3c2=O)cc1 (stereo partly drawn) [Compound 3, formononetin-7-O-(2″,6″-O-diacetyl) glucopyranoside] | 7.61 (≈ 14.8 µM) | 8.89 (≈ 17.3 µM) | 5.44 (≈ 10.6 µM) | 25.53 (≈ 49.6 µM) | 4.18 (≈ 8.12 µM) | 22.12 (≈ 43 µM)
O=c1c(-c2ccc(O)cc2)coc2cc(O)cc(O)c12 [Compound 5, genistein, reference compound] | 4.38 (≈ 16.2 µM) | 5.82 (≈ 21.5 µM) | 3.50 (≈ 13 µM) | 14.88 (≈ 55.1 µM) | 2.39 (≈ 8.84 µM) | 25.45 (≈ 94.2 µM)
